A short description of data set [1]: Genotoxicity in human lymphocytes assessed as chromosome aberration at […] relative to control. Type of data set: toxicity, cell-based. The following applies: lymphocyte.
A short description of data set [2]: AUC in dog at 10 mg/kg, po. Type of data set: ADME, organism-based, Canis lupus familiaris. On the set-up: dose 10 mg/kg, route oral. The following applies: plasma.
A short description of data set [3]: AUC in rat at 5 mg/kg, po. Format: ADME, organism-based. On the set-up: dose 5 mg/kg, route oral. To be noted: plasma.
Data set [4] can be described thus: AUC in dog at 2 mg/kg, po. Format: ADME, organism-based, Canis lupus familiaris. Set-up: dose 2 mg/kg, route oral. The following applies: plasma.
Data set [5] can be described thus: Cmax in dog at 2 mg/kg, po. Set-up: dose 2 mg/kg, route oral. Type of data set: ADME, organism-based, Canis lupus familiaris. To be noted: in vivo.
Data set [6] in a line: Cmax in dog at 10 mg/kg, po. To be noted: in vivo. Format: ADME, organism-based, Canis lupus familiaris. On the set-up: dose 10 mg/kg, route oral.
The nature of data set [7]: Oral bioavailability in dog at 10 mg/kg. Type of data set: ADME, organism-based, Canis lupus familiaris. The following applies: in vivo.
Data set [8] in a line: Cmax in rat at 5 mg/kg, po. Format: ADME, organism-based. On the set-up: dose 5 mg/kg, route oral. To be noted: in vivo.
The nature of data set [9]: Oral bioavailability in rat at 5 mg/kg. Format: ADME, organism-based. To be noted: in vivo.
Data set [10] can be described thus: Oral bioavailability in dog at 2 mg/kg. Type of data set: ADME, organism-based, Canis lupus familiaris. To be noted: in vivo.
Data set [11] is described as follows: Half life in rat at 1 mg/kg, iv. Format: ADME, organism-based. Set-up: dose 1 mg/kg, route intravenous. To be noted: in vivo.
A short description of data set [12]: Half life in dog at 1 mg/kg, iv. Type of data set: ADME, organism-based, Canis lupus familiaris. On the set-up: dose 1 mg/kg, route intravenous. To be noted: in vivo.
Data set [13] can be described thus: Volume of distribution at steady state in dog at 1 mg/kg, iv. Type of data set: ADME, organism-based, Canis lupus familiaris. Set-up: dose 1 mg/kg, route intravenous. The following applies: in vivo, read-out: Vdss.
The nature of data set [14]: Volume of distribution at steady state in rat at 1 mg/kg, iv. On the set-up: dose 1 mg/kg, route intravenous. The following applies: in vivo, read-out: Vdss. Format: ADME, organism-based.
Data set [15] can be described thus: Clearance in rat at 1 mg/kg, iv. Type of data set: ADME, organism-based. Set-up: dose 1 mg/kg, route intravenous. The following applies: in vivo.
Data set [16] in a line: Clearance in dog at 1 mg/kg, iv. Type of data set: ADME, organism-based, Canis lupus familiaris. On the set-up: dose 1 mg/kg, route intravenous. To be noted: in vivo.
Data set [17] in a line: Plasma protein binding in dog. Format: ADME, cell-free, Canis lupus familiaris. The following applies: read-out: PPB (converted).
The nature of data set [18]: Plasma protein binding in rat. Format: ADME, cell-free. The following applies: read-out: PPB (converted).
The target in data set [19] is Phosphatidylinositol 4-kinase beta (Homo sapiens) (UniProt Q9UBF8). In words: Inhibition of PI4Kb (unknown origin) at 1 uM.
Data set [20] addresses Serine/threonine-protein kinase B-raf (Homo sapiens) (UniProt P15056). Kind of data set: Inhibition of B-Raf (unknown origin) at 1 uM.
For data set [21], the target named is T1, Phosphatidylinositol 4,5-bisphosphate 3-kinase catalytic subunit delta isoform (Homo sapiens, UniProt O00329).
T1 sequence (O00329 whole entry): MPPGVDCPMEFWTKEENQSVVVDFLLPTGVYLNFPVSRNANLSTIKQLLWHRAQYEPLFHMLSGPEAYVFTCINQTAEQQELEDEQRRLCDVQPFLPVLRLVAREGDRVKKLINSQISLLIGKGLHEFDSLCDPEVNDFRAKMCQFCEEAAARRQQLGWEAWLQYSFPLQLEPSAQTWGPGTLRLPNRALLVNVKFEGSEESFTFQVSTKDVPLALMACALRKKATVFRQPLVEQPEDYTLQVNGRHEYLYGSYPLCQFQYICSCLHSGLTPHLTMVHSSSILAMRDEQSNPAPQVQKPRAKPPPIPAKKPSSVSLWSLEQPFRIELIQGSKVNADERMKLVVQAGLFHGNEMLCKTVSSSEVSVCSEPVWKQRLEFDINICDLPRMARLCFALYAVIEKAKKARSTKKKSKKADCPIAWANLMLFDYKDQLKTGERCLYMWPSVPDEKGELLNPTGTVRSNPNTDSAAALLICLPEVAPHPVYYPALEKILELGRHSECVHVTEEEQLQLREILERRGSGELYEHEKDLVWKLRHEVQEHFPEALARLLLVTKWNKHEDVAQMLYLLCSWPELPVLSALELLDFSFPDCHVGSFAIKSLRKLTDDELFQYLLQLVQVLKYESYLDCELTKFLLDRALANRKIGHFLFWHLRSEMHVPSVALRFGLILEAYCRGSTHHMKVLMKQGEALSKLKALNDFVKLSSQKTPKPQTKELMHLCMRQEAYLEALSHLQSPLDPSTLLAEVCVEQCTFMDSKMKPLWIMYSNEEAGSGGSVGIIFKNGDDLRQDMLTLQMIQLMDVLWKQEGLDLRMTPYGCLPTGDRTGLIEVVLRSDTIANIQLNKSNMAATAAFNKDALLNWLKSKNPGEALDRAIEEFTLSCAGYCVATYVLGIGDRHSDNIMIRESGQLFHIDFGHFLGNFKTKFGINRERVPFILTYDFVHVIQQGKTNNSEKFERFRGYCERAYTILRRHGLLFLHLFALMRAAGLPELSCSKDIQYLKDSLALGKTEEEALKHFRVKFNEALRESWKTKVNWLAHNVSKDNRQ
Kind of data set: Inhibition of PI3Kdelta in human whole blood assessed as expression of CD69 in B cell preincubated for 1 hr by flow cytometry. Format: tissue-based.

For data set [22], the target named is T1, Phosphatidylinositol 4,5-bisphosphate 3-kinase catalytic subunit delta isoform. In words: Inhibition of PI3Kdelta (unknown origin) assessed as formation of PIP3 by competitive fluorescence polarization assay. To be noted: read-out: Ki(app). Background: Fluorescence polarisation rises when a labelled molecule tumbles more slowly, as on binding a larger partner.

The nature of data set [23]: Genotoxicity in human lymphocytes assessed as mitotic index at […] (reference value: 11.1). Type of data set: toxicity, cell-based. To be noted: lymphocyte.
Data set [24] in a line: Genotoxicity in human lymphocytes assessed as chromosome aberration. Type of data set: toxicity, cell-based. To be noted: lymphocyte.
Data set [25] has as its system CHO-K1. Kind of data set: Genotoxicity in CHOK1 cells by micronucleus assay. Format: toxicity, cell-based, Cricetulus griseus. To be noted: chinese hamster.
Data set [26] deals with Phosphatidylinositol 4,5-bisphosphate 3-kinase catalytic subunit alpha isoform (Homo sapiens, UniProt P42336). Kind of data set: Inhibition of PI3Kalpha (unknown origin) assessed as formation of PIP3 by competitive fluorescence polarization assay. To be noted: read-out: Ki(app).
In data set [27] the target is Phosphatidylinositol 4-phosphate 3-kinase C2 domain-containing subunit beta (Homo sapiens) (UniProt O00750). In words: Inhibition of PI3KC2b (unknown origin) at 10 uM.
The target of data set [28] is Maternal embryonic leucine zipper kinase (Homo sapiens) (UniProt Q14680). Kind of data set: Inhibition of MELK (unknown origin) at 10 uM.
For data set [29], the system named is Serine/threonine-protein kinase B-raf (Homo sapiens), P15056 [V600E]. In words: Inhibition of B-Raf V599E mutant (unknown origin) at 10 uM.
Data set [30] can be described thus: Kinetic solubility of the compound. Format: physicochemical. The following applies: read-out: Kinetic_solubility.

For orientation: AUC means the area under the concentration-time curve, a measure of exposure. By Cmax is commonly meant the highest concentration seen after dosing. In general, bioavailability refers to dose-corrected exposure relative to a reference, in per cent. A low value points to poor availability. What is called half-life is the time in which the quantity being followed falls by half. One may read the clearance as the rate of elimination divided by the concentration. High values mean a high capacity for elimination, low ones a low capacity for elimination. What is called inhibition is the drop in the measured response relative to a control, in per cent. A high value points to a strong effect. What is called IC50 is the concentration needed to halve the response being measured.

≈ marks a conversion by molar mass, not a printed value.

Phosphatidylinositol 4,5-bisphosphate 3-kinase catalytic subunit alpha isoform, sequence (P42336 whole entry, the tested form may be a part, canonical isoform): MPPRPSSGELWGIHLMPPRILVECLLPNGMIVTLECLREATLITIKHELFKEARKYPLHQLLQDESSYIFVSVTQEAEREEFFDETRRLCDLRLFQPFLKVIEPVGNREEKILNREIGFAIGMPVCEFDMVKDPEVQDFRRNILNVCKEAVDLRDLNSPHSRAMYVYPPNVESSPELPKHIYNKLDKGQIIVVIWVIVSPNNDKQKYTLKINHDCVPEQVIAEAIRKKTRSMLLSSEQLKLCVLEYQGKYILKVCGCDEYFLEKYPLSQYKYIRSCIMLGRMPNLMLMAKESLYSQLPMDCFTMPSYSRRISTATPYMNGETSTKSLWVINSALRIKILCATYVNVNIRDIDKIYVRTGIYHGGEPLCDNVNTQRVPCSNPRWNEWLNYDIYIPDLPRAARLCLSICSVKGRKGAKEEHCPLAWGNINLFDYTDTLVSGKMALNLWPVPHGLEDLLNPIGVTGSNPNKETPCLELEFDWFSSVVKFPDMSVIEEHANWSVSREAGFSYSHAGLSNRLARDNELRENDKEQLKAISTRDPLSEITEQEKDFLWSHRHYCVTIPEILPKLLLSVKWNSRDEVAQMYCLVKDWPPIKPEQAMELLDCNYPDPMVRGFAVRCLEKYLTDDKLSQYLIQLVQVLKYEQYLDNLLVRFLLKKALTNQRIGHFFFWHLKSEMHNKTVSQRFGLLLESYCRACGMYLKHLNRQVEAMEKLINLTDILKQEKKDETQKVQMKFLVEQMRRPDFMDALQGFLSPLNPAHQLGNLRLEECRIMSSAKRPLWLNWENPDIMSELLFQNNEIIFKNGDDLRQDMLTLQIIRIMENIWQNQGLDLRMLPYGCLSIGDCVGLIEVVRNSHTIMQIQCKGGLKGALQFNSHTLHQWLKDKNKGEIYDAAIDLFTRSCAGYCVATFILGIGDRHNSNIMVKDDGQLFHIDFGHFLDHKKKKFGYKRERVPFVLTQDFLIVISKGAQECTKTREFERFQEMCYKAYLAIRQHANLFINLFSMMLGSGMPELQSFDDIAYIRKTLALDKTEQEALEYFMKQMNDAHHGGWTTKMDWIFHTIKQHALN
Serine/threonine-protein kinase B-raf (Homo sapiens), sequence (P15056 whole entry, canonical isoform): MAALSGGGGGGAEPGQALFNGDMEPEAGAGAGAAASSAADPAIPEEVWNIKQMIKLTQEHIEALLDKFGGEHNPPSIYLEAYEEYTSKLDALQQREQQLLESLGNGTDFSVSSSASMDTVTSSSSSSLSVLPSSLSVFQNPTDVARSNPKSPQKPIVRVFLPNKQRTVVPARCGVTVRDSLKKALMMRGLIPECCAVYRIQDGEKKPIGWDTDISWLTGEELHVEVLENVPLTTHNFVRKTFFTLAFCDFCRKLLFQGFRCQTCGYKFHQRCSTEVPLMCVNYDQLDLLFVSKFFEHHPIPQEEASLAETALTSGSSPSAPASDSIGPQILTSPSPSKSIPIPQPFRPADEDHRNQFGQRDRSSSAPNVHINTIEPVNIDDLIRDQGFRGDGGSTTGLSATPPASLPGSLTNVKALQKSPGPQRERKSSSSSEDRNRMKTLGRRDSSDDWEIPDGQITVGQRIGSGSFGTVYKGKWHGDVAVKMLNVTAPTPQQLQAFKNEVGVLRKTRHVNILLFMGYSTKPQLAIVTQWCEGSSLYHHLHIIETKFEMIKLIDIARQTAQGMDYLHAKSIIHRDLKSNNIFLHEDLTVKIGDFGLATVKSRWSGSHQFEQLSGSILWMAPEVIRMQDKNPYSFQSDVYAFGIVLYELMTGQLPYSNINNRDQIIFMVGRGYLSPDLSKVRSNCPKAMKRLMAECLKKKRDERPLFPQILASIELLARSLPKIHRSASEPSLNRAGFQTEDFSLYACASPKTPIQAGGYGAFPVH
Serine/threonine-protein kinase B-raf (Homo sapiens), P15056 [V600E], sequence (P15056 whole entry V600E): as the sequence (P15056 whole entry, canonical isoform) above, with V600E counted along it
Maternal embryonic leucine zipper kinase (Homo sapiens), sequence (Q14680 whole entry, looked up): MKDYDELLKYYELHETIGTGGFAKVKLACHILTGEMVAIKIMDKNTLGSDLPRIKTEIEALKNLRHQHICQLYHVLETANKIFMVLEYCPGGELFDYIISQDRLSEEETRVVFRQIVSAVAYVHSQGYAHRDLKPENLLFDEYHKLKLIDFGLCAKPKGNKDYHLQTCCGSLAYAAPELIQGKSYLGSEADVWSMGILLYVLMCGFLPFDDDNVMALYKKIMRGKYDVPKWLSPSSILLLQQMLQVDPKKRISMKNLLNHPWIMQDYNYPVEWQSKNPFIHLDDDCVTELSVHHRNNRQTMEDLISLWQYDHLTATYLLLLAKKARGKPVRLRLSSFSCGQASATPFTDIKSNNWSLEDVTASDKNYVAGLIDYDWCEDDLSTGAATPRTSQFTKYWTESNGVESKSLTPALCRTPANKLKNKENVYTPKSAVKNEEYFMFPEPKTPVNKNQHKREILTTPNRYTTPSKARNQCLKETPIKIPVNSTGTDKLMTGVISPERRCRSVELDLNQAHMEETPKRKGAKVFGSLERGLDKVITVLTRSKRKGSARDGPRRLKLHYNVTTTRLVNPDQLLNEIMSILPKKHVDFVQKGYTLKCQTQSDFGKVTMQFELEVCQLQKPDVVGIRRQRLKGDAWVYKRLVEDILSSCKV
Phosphatidylinositol 4-kinase beta (Homo sapiens), sequence (Q9UBF8 2-816 limits assumed): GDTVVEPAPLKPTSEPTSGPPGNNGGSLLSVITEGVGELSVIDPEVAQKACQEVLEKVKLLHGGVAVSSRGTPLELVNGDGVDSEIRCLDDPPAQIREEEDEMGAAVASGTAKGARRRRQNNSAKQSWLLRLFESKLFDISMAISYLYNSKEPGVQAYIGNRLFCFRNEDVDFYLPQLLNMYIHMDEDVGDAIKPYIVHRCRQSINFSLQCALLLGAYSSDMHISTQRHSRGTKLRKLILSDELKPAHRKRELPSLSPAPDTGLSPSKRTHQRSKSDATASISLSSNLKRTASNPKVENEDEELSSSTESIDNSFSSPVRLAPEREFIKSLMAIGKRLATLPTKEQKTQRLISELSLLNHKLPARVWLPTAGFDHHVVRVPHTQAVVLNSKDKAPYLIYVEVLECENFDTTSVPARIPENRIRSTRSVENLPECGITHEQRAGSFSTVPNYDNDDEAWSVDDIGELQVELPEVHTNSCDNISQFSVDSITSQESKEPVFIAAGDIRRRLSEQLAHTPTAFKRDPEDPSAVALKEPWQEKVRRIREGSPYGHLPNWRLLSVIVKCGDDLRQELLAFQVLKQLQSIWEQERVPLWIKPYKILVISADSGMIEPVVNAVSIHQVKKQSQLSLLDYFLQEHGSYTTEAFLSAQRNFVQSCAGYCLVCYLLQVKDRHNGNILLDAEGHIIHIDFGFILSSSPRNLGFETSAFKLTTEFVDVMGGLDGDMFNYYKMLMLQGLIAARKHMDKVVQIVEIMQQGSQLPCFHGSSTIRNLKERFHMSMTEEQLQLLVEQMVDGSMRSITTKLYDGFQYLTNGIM
Phosphatidylinositol 4-phosphate 3-kinase C2 domain-containing subunit beta (Homo sapiens), sequence (O00750 whole entry, the tested form may be a part): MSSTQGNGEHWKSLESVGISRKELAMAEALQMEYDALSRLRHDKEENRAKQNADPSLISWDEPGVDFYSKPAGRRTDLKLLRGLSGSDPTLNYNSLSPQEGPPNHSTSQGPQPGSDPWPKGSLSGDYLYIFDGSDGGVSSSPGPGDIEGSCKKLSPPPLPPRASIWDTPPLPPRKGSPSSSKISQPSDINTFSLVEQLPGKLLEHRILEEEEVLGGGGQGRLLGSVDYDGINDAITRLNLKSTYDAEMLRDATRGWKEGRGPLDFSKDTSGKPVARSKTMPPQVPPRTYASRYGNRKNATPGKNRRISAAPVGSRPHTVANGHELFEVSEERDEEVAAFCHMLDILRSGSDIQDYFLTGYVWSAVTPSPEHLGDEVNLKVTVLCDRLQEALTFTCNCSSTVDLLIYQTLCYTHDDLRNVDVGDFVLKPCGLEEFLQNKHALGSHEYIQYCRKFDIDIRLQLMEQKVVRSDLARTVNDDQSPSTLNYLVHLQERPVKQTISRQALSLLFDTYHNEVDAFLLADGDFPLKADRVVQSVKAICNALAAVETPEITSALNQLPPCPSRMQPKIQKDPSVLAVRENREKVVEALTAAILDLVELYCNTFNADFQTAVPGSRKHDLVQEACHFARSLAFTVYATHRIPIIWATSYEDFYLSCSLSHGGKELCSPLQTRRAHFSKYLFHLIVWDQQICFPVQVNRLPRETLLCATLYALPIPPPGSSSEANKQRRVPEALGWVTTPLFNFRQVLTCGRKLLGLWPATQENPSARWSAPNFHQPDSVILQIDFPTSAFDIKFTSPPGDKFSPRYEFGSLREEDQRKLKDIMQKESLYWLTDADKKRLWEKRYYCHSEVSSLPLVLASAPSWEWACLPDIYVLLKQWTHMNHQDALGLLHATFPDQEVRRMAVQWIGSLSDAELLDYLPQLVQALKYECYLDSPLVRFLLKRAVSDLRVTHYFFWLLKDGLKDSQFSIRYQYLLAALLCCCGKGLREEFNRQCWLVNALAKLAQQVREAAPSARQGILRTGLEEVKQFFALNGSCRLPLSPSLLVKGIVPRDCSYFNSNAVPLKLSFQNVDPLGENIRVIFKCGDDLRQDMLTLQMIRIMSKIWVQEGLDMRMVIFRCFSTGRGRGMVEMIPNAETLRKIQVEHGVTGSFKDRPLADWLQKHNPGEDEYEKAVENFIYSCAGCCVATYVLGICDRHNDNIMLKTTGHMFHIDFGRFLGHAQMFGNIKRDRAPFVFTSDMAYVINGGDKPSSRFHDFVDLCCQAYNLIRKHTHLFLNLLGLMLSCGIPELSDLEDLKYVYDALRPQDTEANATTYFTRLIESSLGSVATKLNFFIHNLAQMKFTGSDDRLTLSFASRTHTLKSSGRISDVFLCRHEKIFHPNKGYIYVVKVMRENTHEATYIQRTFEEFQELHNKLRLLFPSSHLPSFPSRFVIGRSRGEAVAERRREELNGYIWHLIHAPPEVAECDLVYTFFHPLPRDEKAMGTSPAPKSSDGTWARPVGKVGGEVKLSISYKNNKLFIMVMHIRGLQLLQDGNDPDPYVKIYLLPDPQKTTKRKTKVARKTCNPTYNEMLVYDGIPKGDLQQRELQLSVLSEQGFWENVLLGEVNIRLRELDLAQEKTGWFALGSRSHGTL

For `CC(C)c1nc2ccccc2n1-c1nc(N2CCOCC2)c2nc(OC3CN(C4CCS(=O)(=O)CC4)C3)n(C)c2n1`, the Activity in data set [1] was 2%; in data set [23] it was 6.8%. Also, the AUC in data set [2] worked out at 128 µM·h; in data set [3], 7.23 µM·h; in data set [4], 21.1 µM·h. Moreover, the Cmax in data set [5] came to 1740 nM; in data set [6], 8810 nM; in data set [8] it was 1180 nM. Also, the figures for the bioavailability in data set [7], in data set [9] and in data set [10] were 100%, 96.2% and 82.6%, respectively. The figures for the half-life in data set [11] and in data set [12] were 2.59 h and 11.6 h, respectively. Besides, the Vd in [13] came out at 2.2 L/kg; in data set [14] it was 3.6 L/kg. Besides, the clearance came to 19.4 mL/min/kg in data set [15] and 2.3 mL/min/kg in data set [16]. The fraction unbound is 0.2 in data set [17] and 0.183 in data set [18]. Besides, the inhibition in [19] stood at 71%; in data set [20], 61%. In addition, the IC50 in data set [21] is 4.38 nM. Further, the Ki in [22] came out at 0.47 nM.

On to `CCc1nc2ccccc2n1-c1nc(N2CCOCC2)c2nc(N(C)C3CN(C4CCS(=O)(=O)CC4)C3)n(C)c2n1`, for which the IC50 in data set [21] is 1.79 nM. In [22], the Ki was determined as 0.59 nM.

With `CCc1nc2ccccc2n1-c1nc(N2CCOCC2)c2sc(CN3CCC(C(C)(C)O)CC3)cc2n1`, the Activity result in data set [24] and in data set [25] was “Non-toxic” in each case.

Compound `CCc1nc2ccccc2n1-c1nc(N2CCOCC2)c2nc(CC3CN(C4CCS(=O)(=O)CC4)C3)n(C)c2n1` showed a clearance in data set [15] of 63 mL/min/kg. Also, in [21], the IC50 stood at 4.02 nM. In addition, the Ki in data set [22] worked out at 0.23 nM.

As to `CCc1nc2ccccc2n1-c1nc(N2CCOCC2)c2nc(NC3CN(C(=O)C(C)C)C3)n(C)c2n1`, the Ki in data set [22] came out at 0.88 nM.

For the compound `CCc1nc2ccccc2n1-c1nc(N2CCOCC2)c2nc(CN3CCC(C(C)(C)O)CC3)n(C)c2n1`, the Activity result in data set [24] and in [25] was “Toxic” each time.

With `CCc1nc2ccccc2n1-c1nc(N2CCOCC2)c2nc(C(=O)N3CCN(C(C)(C)C(N)=O)CC3)n(C)c2n1`, the Ki turned out to be 236 nM in data set [26] and 0.8 nM in data set [22].

Consider `CCc1nc2ccccc2n1-c1nc(N2CCOCC2)c2nc(C(=O)N3CCC(C(C)(C)O)CC3)n(C)c2n1`, for which the IC50 in data set [21] is 52.8 nM. Also, the Ki in data set [22] turned out to be 3.1 nM.

With `CC(C)(O)C1CCN(Cc2cc3nc(-c4cccc5[nH]ncc45)nc(N4CCOCC4)c3s2)CC1`, the Activity result in [24] and in [25] was “Non-toxic” in each case. Also, the Ki in data set [22] amounted to 1.1 nM.

Take `CCc1nc2ccccc2n1-c1nc(N2CCOCC2)c2nc(CC3CN(C(=O)C(C)C)C3)n(C)c2n1`: in data set [21], the IC50 amounted to 9.96 nM. The Ki in [22] stood at 0.36 nM.

As to `Cn1c(CN2CCC(C(C)(C)O)CC2)nc2c(N3CCOCC3)nc(-c3cccc4[nH]ncc34)nc21`, the Ki in data set [22] is 2.3 nM.

As to `CC(C)c1nc2ccccc2n1-c1nc(N2CCOCC2)c2nc(CN3CCC(C(C)(C)O)CC3)n(C)c2n1`, the inhibition in [27] worked out at 72%; in [28], 63%; in data set [29] it was 53%. In addition, in data set [30], the solubility kinetic was 32 µM (≈ 17 µg/mL). Moreover, the Activity entry is “Toxic” in [24] and “Non-toxic” in data set [25].

For `Cc1nc2ccccc2n1-c1nc(N2CCOCC2)c2nc(CN3CCC(C(C)(C)O)CC3)n(C)c2n1`, the Activity result in data set [24] and in data set [25] was “Toxic” throughout.

Consider `CNc1nc2ccccc2n1-c1nc(N2CCOCC2)c2nc(CN3CCC(C(C)(C)O)CC3)n(C)c2n1`, for which, in [25], the Activity entry is “Toxic”.

In the case of `CCc1nc2ccccc2n1-c1nc(N2CCOCC2)c2nc(NC3CN(C4CCS(=O)(=O)CC4)C3)n(C)c2n1`, in data set [21], the half-maximal inhibitory concentration (IC50) was 80.2 nM. In addition, the Ki in data set [22] amounted to 0.9 nM.

Take `CCc1nc2ccccc2n1-c1nc(N2CCOCC2)c2sc(C(=O)N3CCN(C(C)(C)C(N)=O)CC3)c(C)c2n1`: the values for the Ki in [26] and in data set [22] were 157 nM and 12.7 nM, respectively.

In the case of `Cn1c(CN2CCC(C(C)(C)O)CC2)nc2c(N3CCOCC3)nc(-n3c(C4CC4)nc4ccccc43)nc21`, the Activity entry in data set [24] is “Toxic”; in data set [25], “Non-toxic”.

The record behind these values is ChEMBL document CHEMBL2413047, “Identification of GNE-293, a potent and selective PI3Kδ inhibitor: navigating in vitro genotoxicity while improving potency and selectivity” (Bioorg Med Chem Lett, 2013).
